# Experimental data from patent US20090142364A1, “Method for finding novel peptide immunostimulatory adjuvants, compositions and methods of use” (priority 2007, published 2009).
# Where a SMILES comes first, the peptide text is derived from it.
# Tests used:
# [1] = tested on: antibody response to N. meningitidis serogroup C capsular polysaccharide; test: Antibody response to N. meningitidis serogroup C capsular polysaccharide, passive agglutination test; type: in vivo, CBA mice; details: 0.2 μg capsular polysaccharide i.v.
# Description: Immunization with capsular polysaccharide of N. meningitidis serogroup C was carried out in CBA mice. Groups of 5 mice were administered i.v. with polysaccharide C (0.2 μg) in saline in the presence of 1-100 μg of RN-peptide. Control mice were immunized with optimal dose (2 μg/mouse) of polysaccharide. Four days later mice were bled from tail vein and the antibody titer was evaluated by passive agglutination test using commercial erythrocyte diagnostic kit.
# E. coli strain TG-1 = test: Survival of Balb/c mice infected with E. coli strain TG-1; type: in vivo, mouse; details: 2 ng i.p., 6 mice at 0 h
# Description: Groups of Balb/c mice (20-22 g) were administered i.p. with RN-peptide, or GMDP, or saline (control), and then infected i.p. with E. coli strain TG-1 cells. Two doses of E. coli cells were used—1×10^8 (LD50) and 2×10^8 (LD100). Mice were infected one day (experiment A) or seven days (experiment B) after injection of the immunomodulator. Survival of mice was assessed during three days. Results showing that RN-peptide protects mice from lethal doses of E. coli infections (Table 4).
# [2] = Experiment A (infected one day after injection), 1 × 10^8 E. coli cells (LD50)
# [3] = Experiment A (infected one day after injection), 2 × 10^8 E. coli cells (LD100)
# [4] = Experiment B (infected seven days after injection), 1 × 10^8 E. coli cells (LD50)
# [5] = Experiment B (infected seven days after injection), 2 × 10^8 E. coli cells (LD100)
compound,measurement,setting,value
"CC[C@H](C)[C@H](NC(=O)[C@H](CCCCN)NC(=O)[C@H](C)NC(=O)[C@H](Cc1c[nH]cn1)NC(=O)[C@H](Cc1ccc(O)cc1)NC(=O)[C@H](CCCNC(=N)N)NC(=O)[C@@H]1CCCN1C(=O)[C@@H]1CCCN1C(=O)[C@@H](NC(=O)[C@@H](N)CCCNC(=N)N)C(C)C)C(=O)N[C@@H](CO)C(=O)N1CCC[C@H]1C(=O)N[C@@H](CCSC)C(=O)N[C@H](C(=O)N[C@@H](CC(N)=O)C(=O)O)C(C)C [RN-peptide, RVPPRYHAKISPMVN] (H-RVPPRYHAKISPMVN-OH)",anti-polysaccharide antibody titer (in words),[1],increased considerably
same,Number of survivors,E. coli strain TG-1; [2],5
same,"surviving mice, 24 hours after infection",E. coli strain TG-1; [2],6
same,"surviving mice, 28 hours after infection",E. coli strain TG-1; [2],5
same,"surviving mice, 72 hours after infection",E. coli strain TG-1; [2],5
same,Number of survivors,E. coli strain TG-1; [3],2
same,"surviving mice, 24 hours after infection",E. coli strain TG-1; [3],5
same,"surviving mice, 28 hours after infection",E. coli strain TG-1; [3],5
same,"surviving mice, 72 hours after infection",E. coli strain TG-1; [3],2
same,Number of survivors,E. coli strain TG-1; [4],4
same,"surviving mice, 24 hours after infection",E. coli strain TG-1; [4],6
same,"surviving mice, 28 hours after infection",E. coli strain TG-1; [4],5
same,"surviving mice, 72 hours after infection",E. coli strain TG-1; [4],4
same,Number of survivors,E. coli strain TG-1; [5],1
same,"surviving mice, 24 hours after infection",E. coli strain TG-1; [5],3
same,"surviving mice, 28 hours after infection",E. coli strain TG-1; [5],3
same,"surviving mice, 72 hours after infection",E. coli strain TG-1; [5],1
